In patent US20240383908A1, “SYNTHESIS AND APPLICATION OF PHOSPHATASE DEGRADER” (HINOVA PHARMACEUTICALS INC., priority 2021, published 2024):

Biological target: T1, SHP2 protein (Homo sapiens, UniProt Q06124)
T1 sequence (Q06124 1-593): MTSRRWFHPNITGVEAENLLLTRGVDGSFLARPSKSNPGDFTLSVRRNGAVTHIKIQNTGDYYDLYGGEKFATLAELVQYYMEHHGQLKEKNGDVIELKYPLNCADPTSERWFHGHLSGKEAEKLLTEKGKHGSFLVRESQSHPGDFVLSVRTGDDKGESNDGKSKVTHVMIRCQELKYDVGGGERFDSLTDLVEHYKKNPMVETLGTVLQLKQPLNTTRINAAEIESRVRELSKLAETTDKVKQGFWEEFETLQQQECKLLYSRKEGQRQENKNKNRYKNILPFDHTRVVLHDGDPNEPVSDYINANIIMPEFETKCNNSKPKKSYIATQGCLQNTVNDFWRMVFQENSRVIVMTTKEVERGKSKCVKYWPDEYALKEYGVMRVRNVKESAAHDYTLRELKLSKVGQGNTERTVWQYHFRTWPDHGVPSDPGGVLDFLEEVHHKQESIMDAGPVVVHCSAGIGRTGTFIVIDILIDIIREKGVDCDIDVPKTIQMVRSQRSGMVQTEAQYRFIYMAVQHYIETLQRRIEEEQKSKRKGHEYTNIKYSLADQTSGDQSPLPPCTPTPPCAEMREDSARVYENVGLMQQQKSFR
Assay: Degradation activity on SHP2 protein in MIA Paca-2 cells (Western blot, DC50)
Type: cell-based
Design: endogenous in cells; host or cells: MIA Paca-2 cells
Details: read-out: Degradation activity for differenct cell lines MIA Paca-2 (DC50)
Method in brief: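 Cells were treated 24 h at 37 °C with compound (0.1–100 nM final, 0.1% DMSO). SHP2 was measured by Western blot with GAPDH as loading control, densitometry normalized to DMSO (100%). DC50, the concentration giving 50% degradation, came from a dose-response fit.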

DC50 [nM] | SMILES
< 100 | CC1(N)CCN(c2cnc(Sc3cccc(NC(=O)c4ccc(N5CCC(N6CCN(c7ccc(C(=O)NCc8ccc9c(c8)CN(C8CCC(=O)NC8=O)C9=O)c(F)c7)CC6)CC5)cc4)c3)cn2)CC1 (stereo not drawn) [Compound 502]
< 100 | CC1(N)CCN(c2cnc(Sc3cccc(NC(=O)c4ccc(N5CCC(N6CCN(c7ccc(C(=O)NCc8ccc9c(c8)CN(C8CCC(=O)NC8=O)C9=O)nc7)CC6)CC5)cc4F)c3)cn2)CC1 (stereo not drawn) [Compound 392]
< 100 | CC1(N)CCN(c2cnc(Sc3cccc(NC(=O)CCCCN4CCC(N5CCN(c6ccc(C(=O)NCc7ccc8c(c7)CN(C7CCC(=O)NC7=O)C8=O)nn6)CC5C(F)(F)F)C4)c3)cn2)CC1 (stereo not drawn) [Compound 267]
< 100 | CC1(N)CCN(c2cnc(Sc3cccc(NC(=O)c4ccc(N5CCC(N6CCN(c7ccc(C(=O)NCc8ccc9c(c8)CN(C8CCC(=O)NC8=O)C9=O)cc7F)CC6)CC5)c(F)c4)c3)cn2)CC1 (stereo not drawn) [Compound 499]
> 1000 | NC1CCN(c2cnc(Sc3cccc(NC(=O)c4ccc(N5CCC(N6CC=C(c7ccc(C(=O)NCc8ccc9c(c8)CN(C8CCC(=O)NC8=O)C9=O)nn7)CC6)CC5)cc4)c3)cn2)CC1F (stereo not drawn) [Compound 376]
< 100 | C[C@@H]1OCC2(CCN(c3cnc(Sc4cccc(NC(=O)C5CC6(C5)CC(N5CC=C(c7ccc(C(=O)NCc8ccc9c(c8)CN(C8CCC(=O)NC8=O)C9=O)nc7)CC5)C6)c4)cn3)CC2)[C@@H]1N (stereo partly drawn) [Compound 473]
< 100 | C[C@@H]1OCC2(CCN(c3cnc(Sc4cccc(NC(=O)c5ccc(N6CCC(N7CCC(c8ccc(C(=O)NCc9ccc%10c(c9)CN(C9CCC(=O)NC9=O)C%10=O)cc8)C(F)C7)CC6)c(F)c5)c4)cn3)CC2)[C@@H]1N (stereo partly drawn) [Compound 510]
< 100 | C[C@@H]1OCC2(CCN(c3cnc(Sc4cccc(NC(=O)c5ccc(N6CCC(N7CC=C(c8ccc(C(=O)NCc9ccc%10c(c9)CN(C9CCC(=O)NC9=O)C%10=O)nn8)CC7)CC6)cc5)c4)cn3)CC2)[C@@H]1N (stereo partly drawn) [Compound 328]
< 100 | C[C@@H]1OCC2(CCN(c3cnc(Sc4cccc(NC(=O)C5CCC(N6CC=C(c7ccc(C(=O)NCc8ccc9c(c8)CN(C8CCC(=O)NC8=O)C9=O)nc7)CC6)CC5)c4)cn3)CC2)[C@@H]1N (stereo partly drawn) [Compound 474]
> 1000 | CC1(N)CCN(c2cnc(Sc3cccc(NC(=O)C4CCC(N5CC=C(c6ccc(C(=O)N7CCN(c8ccc9c(c8)CN(C8CCC(=O)NC8=O)C9=O)CC7)nc6)CC5)CC4)c3)cn2)CC1 (stereo not drawn) [Compound 305]
> 1000 | CC1(N)CCN(c2cnc(Sc3cccc(NC(=O)c4ccc(CN5CCN(c6ccc7c(c6)CN(C6CCC(=O)NC6=O)C7=O)CC5)cc4)c3)cn2)CC1 (stereo not drawn) [Compound 286]
> 1000 | CC1(N)CCN(c2cnc(Sc3cccc(NC(=O)C4CC45CCN(c4ccc(C(=O)NCc6ccc7c(c6)CN(C6CCC(=O)NC6=O)C7=O)nn4)CC5)c3)cn2)CC1 (stereo not drawn) [Compound 299]
< 100 | CC1(N)CCN(c2cnc(Sc3cccc(NC(=O)c4ccc(N5CCC(N6CC=C(c7ccc(C(=O)Nc8ccc9c(c8)CN(C8CCC(=O)NC8=O)C9=O)nn7)CC6)CC5)cc4)c3)cn2)CC1 (stereo not drawn) [Compound 330]
< 100 | CC1(N)CCN(c2cnc(Sc3cccc(NC(=O)c4ccc(N5CCC(N6CC=C(c7ccc(C(=O)Nc8ccc9c(c8)CN(C8CCC(=O)NC8=O)C9=O)nc7)CC6)CC5)cc4)c3)cn2)CC1 (stereo not drawn) [Compound 313]
> 1000 | C[C@@H]1OCC2(CCN(c3cnc(Sc4cccc(NC(=O)c5cccc(CN6CCN(c7ccc8c(c7)CN(C7CCC(=O)NC7=O)C8=O)CC6)c5)c4)cn3)CC2)[C@@H]1N (stereo partly drawn) [Compound 297]
> 1000 | CC1(N)CCN(c2ccc(-c3cccc(NC(=O)c4ccc(N5CCC(N6CC=C(c7ccc(C(=O)NCc8ccc9c(c8)CN(C8CCC(=O)NC8=O)C9=O)nn7)CC6)CC5)cc4)c3)cn2)CC1 (stereo not drawn) [Compound 408]
< 100 | CC1(N)CCN(c2cnc(Sc3cccc(NC(=O)c4ccc(C5=CCC(N6CC=C(c7ccc(C(=O)NCc8ccc9c(c8)CN(C8CCC(=O)NC8=O)C9=O)nn7)CC6)CC5)cc4)c3)cn2)CC1 (stereo not drawn) [Compound 309]
> 1000 | CC1(N)CCN(c2cnc(Sc3cccc(NC(=O)c4csc(N5CCC(N6CC=C(c7ccc(C(=O)NCc8ccc9c(c8)CN(C8CCC(=O)NC8=O)C9=O)nc7)CC6)CC5)n4)c3)cn2)CC1 (stereo not drawn) [Compound 358]
< 100 | CC1(N)CCN(c2cnc(Sc3cccc(NC(=O)c4ccc(N5CCC(N6CC=C(c7ccc(C(=O)NCc8ccc9c(c8)CN(C8CCC(=O)NC8=O)C9=O)nc7F)CC6)CC5)cc4)c3)cn2)CC1 (stereo not drawn) [Compound 481]
100 to 1000 | Cc1cc(C(=O)NCc2ccc3c(c2)CN(C2CCC(=O)NC2=O)C3=O)ncc1C1=CCN(C2CCN(c3ccc(C(=O)Nc4cccc(Sc5cnc(N6CCC(C)(N)CC6)cn5)c4)cc3C)CC2)CC1 (stereo not drawn) [Compound 456]

DC50 [nM] | SMILES
< 100 | Cc1cc(C(=O)Nc2cccc(Sc3cnc(N4CCC(C)(N)CC4)cn3)c2)ccc1N1CCC(N2CCN(c3cnc(C(=O)NCc4ccc5c(c4)CN(C4CCC(=O)NC4=O)C5=O)cc3Cl)CC2)CC1 (stereo not drawn) [Compound 495]
100 to 1000 | CC1(N)CCN(c2cnc(Sc3cccc(NC(=O)c4cnc(N5CCC(N6CC=C(c7ccc(C(=O)NCc8ccc9c(c8)CN(C8CCC(=O)NC8=O)C9=O)nn7)CC6)CC5)cn4)c3)cn2)CC1 (stereo not drawn) [Compound 429]
> 1000 | CC1(N)CCN(c2cnc(Sc3cccc(NC(=O)C4CC45CCC(N4CC=C(c6ccc(C(=O)Nc7ccc8c(c7)CN(C7CCC(=O)NC7=O)C8=O)nc6)CC4)CC5)c3)cn2)CC1 (single isomer, unassigned) [Compound 316]
> 1000 | C[C@@H]1OCC2(CCN(c3cnc(Sc4cccc(NC(=O)C5CC(N6CCN(c7ccc(C(=O)NCc8ccc9c(c8)CN(C8CCC(=O)NC8=O)C9=O)nn7)CC6)C5)c4)cn3)CC2)[C@@H]1N (stereo partly drawn) [Compound 475]
< 100 | CC1(N)CCN(c2cnc(Sc3cccc(NC(=O)c4ccc(N5CCC(N6CCC(c7ccc(C(=O)NCc8ccc9c(c8)CN(C8CCC(=O)NC8=O)C9=O)cc7)C(F)C6)CC5)c(F)c4)c3)cn2)CC1 (stereo not drawn) [Compound 506]
< 100 | C[C@@H]1OCC2(CCN(c3cnc(Sc4cccc(NC(=O)c5ccc(N6CCC(N7CC=C(c8ccc(C(=O)NCc9ccc%10c(c9)CN(C9CCC(=O)NC9=O)C%10=O)nc8)CC7)C6)c(F)c5)c4)cn3)CC2)[C@@H]1N (stereo partly drawn) [Compound 516]
100 to 1000 | CC1(N)CCN(c2cnc(Sc3cccc(NC(=O)c4ccc(N5CCC(N6CCN(c7ccc(C(=O)NCc8ccc9c(c8)CN(C8CCC(=O)NC8=O)C9=O)nn7)CC6)CC5)nn4)c3)cn2)CC1 (stereo not drawn) [Compound 498]
< 100 | CC1(N)CCN(c2cnc(Sc3cccc(NC(=O)c4ccc(N5CCC(N6CC=C(C7CCC(C(=O)NCc8ccc9c(c8)CN(C8CCC(=O)NC8=O)C9=O)CC7)CC6)CC5)c(F)c4)c3)cn2)CC1 (stereo not drawn) [Compound 511]
100 to 1000 | CC1(N)CCN(c2cnc(Sc3cccc(NC(=O)c4cc(F)c(N5CCC(N6CC=C(c7ccc(C(=O)NCc8ccc9c(c8)CN(C8CCC(=O)NC8=O)C9=O)nc7)CC6)CC5)c(F)c4)c3)cn2)CC1 (stereo not drawn) [Compound 471]
100 to 1000 | CC1(N)CCN(c2cnc(Sc3cccc(NC(=O)c4ccc(N5CCC(N6CCN(c7ccc(C(=O)NCc8ccc9c(c8)CN(C8CCC(=O)NC8=O)C9=O)nc7)CC6)CC5)nc4)c3)cn2)CC1 (stereo not drawn) [Compound 436]
< 100 | CC1(N)CCN(c2cnc(Sc3cccc(NC(=O)c4ccc(N5CCC(N6CCN(c7nnc(C(=O)NCc8ccc9c(c8)CN(C8CCC(=O)NC8=O)C9=O)cc7Cl)CC6)CC5)cc4F)c3)cn2)CC1 (stereo not drawn) [Compound 494]
< 100 | CC1(N)CCN(c2cnc(Sc3cccc(NC(=O)c4ccc(N5CCC(N6CC=C(c7ccc(C(=O)NCc8ccc9c(c8)CN(C8CCC(=O)NC8=O)C9=O)nn7)CC6)CC5)nc4)c3)cn2)CC1 (stereo not drawn) [Compound 326]
> 1000 | CC1(N)CCN(c2cnc(Sc3cccc(NC(=O)c4ccc(N5CCC(N6CC=C(c7ncc(C(=O)NCc8ccc9c(c8)CN(C8CCC(=O)NC8=O)C9=O)o7)CC6)CC5)c(F)c4)c3)cn2)CC1 (stereo not drawn) [Compound 417]
> 1000 | CC1(N)CCN(c2cnc(Sc3cccc(NC(=O)c4cnc(N5CCC(N6CC=C(c7ccc(C(=O)NCc8ccc9c(c8)CN(C8CCC(=O)NC8=O)C9=O)nc7)CC6)CC5)o4)c3)cn2)CC1 (stereo not drawn) [Compound 340]
< 100 | CC1(N)CCN(c2cnc(Sc3cccc(NC(=O)c4ccc(N5CCC(N6CC=C(c7ccc(C(=O)Nc8ccc9c(c8)CN(C8CCC(=O)NC8=O)C9=O)nn7)CC6)CC5)nc4)c3)cn2)CC1 (stereo not drawn) [Compound 327]
< 100 | COCC1(N)CCN(c2cnc(Sc3cccc(NC(=O)c4ccc(N5CCC(N6CC=C(c7ccc(C(=O)NCc8ccc9c(c8)CN(C8CCC(=O)NC8=O)C9=O)nc7)CC6)CC5)cc4)c3)cn2)CC1 (stereo not drawn) [Compound 434]
> 1000 | CC1(N)CCN(c2cnc(Sc3cccc(NC(=O)c4cc(N5CCC(N6CC=C(c7ccc(C(=O)NCc8ccc9c(c8)CN(C8CCC(=O)NC8=O)C9=O)nn7)CC6)CC5)cs4)c3)cn2)CC1 (stereo not drawn) [Compound 404]
< 100 | CC1(N)CCN(c2cnc(Sc3cccc(NC(=O)c4ccc(N5CCC(N6CCN(c7ccc(C(=O)NCc8ccc9c(c8)CN(C8CCC(=O)NC8=O)C9=O)nn7)CC6)CC5)nc4)c3)cn2)CC1 (stereo not drawn) [Compound 437]
> 1000 | O=C1CCC(N2Cc3cc(CNC(=O)c4ccc(N5CCC6(CN(CCCCCCC(=O)Nc7cccc(Sc8cnc(N9CCCCC9)cn8)c7)C6)C5)nn4)ccc3C2=O)C(=O)N1 (stereo not drawn) [Compound 212]
